The record followed here is patent publication US20040093331A1, “Computer program products, systems and methods for information discovery and relational analyses” (Board of Regents, University of Texas System, priority 2002, published 2004).

In this assay the test system is cardiac hypertrophy. Briefly: Isoproterenol-induced cardiac hypertrophy in mice, osmotic micro-infusion pumps, echocardiography before and 7 days after start of infusion. The format is in vivo. The method, then:
Validation of a relevant relationship between chlorpromazine and cardiac hypertrophy was performed through a series of laboratory studies in mice comparing the effects of a known beta-adrenergic agonist (also known to induce hypertrophy), isoproterenol, with isoproterenol plus chlorpromazine.
In brief, the study included 2 groups of 8 mice fitted with osmotic micro-infusion pumps. One group was given a continuous dose of 20 mg/kg/day isoproterenol and the other 20 mg/kg/day isopreterenol+10 mg/kg/day chlorpromazine. A smaller dose of chlorpromazine was chosen in preference to a larger one to minimize alterations in feeding behavior. Additionally, it reduced an adverse reaction between chlorpromazine and avertin (tribromoethanol), a anesthetic agent. Echocardiograms were taken before treatment and 7 days after initiation of infusions. Mice were sacrificed and their heart weighed.
FIG. 19 and TABLE 22 summarize the study findings. Generally, cardiac hypertrophy (as assessed by echocardiography) was reduced in mice treated with chlorpromazine plus isoproterenol. […] Echocardiography was use to estimate the change in weight or thickness of several different cardiac structures over the course of treatment. For FIG. 19, ten mice received isoproterenol (ISO) and eight received isoproterenol and chlorpromazine (CPZ+ISO), where LVW=left ventricle weight (CPZ+ISO 11±27%, ISO 51±43%, P<0.02); LVMI=left ventricular mass index (CPZ+ISO 11±28%, ISO 50±52%, P<0.04); PWT=posterior wall thickness (CPZ+ISO 16±16%, ISO 36±27%, P<0.05), IVSWT=intraventricular septum wall thickness (CPZ+ISO 19±18%, ISO 31±20%, P<0.12).

Consider `CC(C)NCC(O)c1ccc(O)c(O)c1` (stereo not shown) [ISO, isoproterenol], for which the “LVMI=left ventricular mass index” value (FIG. 19, change over course of treatment, echocardiography, P<0.04) is 50±52%. In addition, under “FIG. 19, change over course of treatment, echocardiography, P<0.05”, the “PWT=posterior wall thickness” value came out at 36±27%. For the same molecule, the “IVSWT=intraventricular septum wall thickness” value (FIG. 19, change over course of treatment, echocardiography, P<0.12) stood at 31±20%. Moreover, the “LVW=left ventricle weight” value (FIG. 19, change over course of treatment, echocardiography, ten mice ISO, eight CPZ+ISO, P<0.02) was determined as 51±43%. In addition, where the note is “Table 22, change in intraventricular septum wall thickness over treatment, echocardiography, 7 days infusion”, the “DI VS WT” value is given as 31% ± 21%. Moreover, the LLVW (Table 22, change in left ventricle weight over treatment, echocardiography, 20 mg/kg/day isoproterenol with or without 10 mg/kg/day chlorpromazine, 7 days) is 53% ± 45%. In addition, the OLVMI (Table 22, change in left ventricular mass index over treatment, echocardiography, 7 days infusion) is listed as 50% ± 55%. Moreover, for the setting “Table 22, change in posterior wall thickness over treatment, echocardiography, 7 days infusion”, the OPWT was 36% ± 28%.

On to `C=CCN1CC[C@]23c4c5ccc(O)c4O[C@H]2C(=O)CC[C@@]3(O)[C@H]1C5` [Naloxone], for which the “effect of the drug in a mouse model of cardiohypertrophy” value (mouse model as described for chlorpromazine, values not given) was “validated in vivo”.

`CN(C)CCCN1c2ccccc2Sc2ccc(Cl)cc21` [chlorpromazine]: the “cardiac hypertrophy (as assessed by echocardiography)” value (10 mg/kg/day chlorpromazine + 20 mg/kg/day isoproterenol versus isoproterenol alone, mice) is “protected the mice against the development of cardiac hypertrophy”.
